In publication PMC3368886, “ATPase Cycle and DNA Unwinding Kinetics of RecG Helicase” (PLoS ONE, 2012):
pKi: −log10 of the molar value.

How the values were obtained:
RecG⋅DNA(A40:B40) [1] = target: T1, RecG⋅DNA(A40:B40) (Thermotoga maritima, UniProt Q9WY48); assay: Pi release with excess ATP, global fit to ATPase cycle model; assay type: biochemical; conditions: fixed to be consistent with K i for ADP
T1 construct: made in house
T1 sequence (Q9WY48 1-780): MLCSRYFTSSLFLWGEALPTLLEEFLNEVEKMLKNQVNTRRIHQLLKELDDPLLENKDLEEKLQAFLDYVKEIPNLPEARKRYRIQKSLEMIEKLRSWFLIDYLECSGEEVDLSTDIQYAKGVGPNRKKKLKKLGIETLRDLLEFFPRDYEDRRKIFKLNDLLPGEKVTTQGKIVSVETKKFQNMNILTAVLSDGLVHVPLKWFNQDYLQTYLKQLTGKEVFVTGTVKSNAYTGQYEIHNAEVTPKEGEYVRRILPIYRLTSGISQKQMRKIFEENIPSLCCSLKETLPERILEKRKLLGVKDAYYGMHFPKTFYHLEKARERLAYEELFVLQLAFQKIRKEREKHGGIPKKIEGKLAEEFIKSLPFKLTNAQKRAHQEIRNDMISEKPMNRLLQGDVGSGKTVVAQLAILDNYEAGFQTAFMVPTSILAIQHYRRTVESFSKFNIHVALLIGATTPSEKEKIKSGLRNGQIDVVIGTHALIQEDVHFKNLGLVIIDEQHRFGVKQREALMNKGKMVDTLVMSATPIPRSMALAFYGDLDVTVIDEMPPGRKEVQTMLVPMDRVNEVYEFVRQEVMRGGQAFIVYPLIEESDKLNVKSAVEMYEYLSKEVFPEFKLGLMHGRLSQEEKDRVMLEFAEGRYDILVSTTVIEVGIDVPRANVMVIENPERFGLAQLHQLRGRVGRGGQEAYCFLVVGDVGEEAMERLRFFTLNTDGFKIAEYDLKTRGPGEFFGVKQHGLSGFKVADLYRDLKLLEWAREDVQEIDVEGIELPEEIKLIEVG
Protocol: The rate of Pi release was measured after mixing RecG⋅DNA with excess ATP, using the phosphate biosensor, in the stopped-flow apparatus (Figure 6A). […] Both phases are dependent on ATP concentration. The lag decreased, while the rate of the linear phase increased with greater concentrations of ATP. The lag is due to the steps prior to Pi release, namely ATP binding and cleavage. […] Such a burst phase would result from the relatively fast Pi release of the initial cycle before the Pi release of subsequent cycles was limited by slow ADP release.
(§1) Figure 6 ATPase cycle measurements with unmodified nucleotides. (A) Phosphate measurements at different ATP concentrations. 0.5 µM RecG, premixed with 2.5 µM DNA (A40:B40), was then mixed in the stopped-flow apparatus with ATP at the micromolar concentrations shown, in the presence of 10 µM MDCC-PBP. (B) Best fit time courses of the Pi release, based upon a model of the ATPase cycle, as described in the text. Curves were obtained by glogal fitting the curves at different concentrations, using Global kinetic Explorer. Note that in comparison, the experimental time courses show a small transient of Pi at times <100 ms. This is likely to be due to free Pi and this behavior, overlaying a lag, has been observed previously in multi-turnover measurements. (C) ADP Release kinetics. 10 µM RecG⋅DNA (A40∶B40) was pre-bound with 10 µM ADP before mixing with an excess of mantADP (20 µM): these concentrations are final in the mixing chamber. The increase in fluorescence was fitted to single exponential giving the dissociation rate constant of 11.4 (±2.2) s^−1. Rate constants were independent of mantADP concentration in the range of 20–80 µM.
A scheme of the ATPase cycle (Figure 2) was used to simulate the data to assess the individual rate constants. […] The simulated traces (Figure 6B) were obtained from a global fit to the experimental data. This was done by allowing only the rate constants that have maximum influence on the curve shapes to vary. Cleavage and Pi release were assumed to be irreversible. For the fit, Pi release was fixed at 100 s^–1, ADP release at 12.5 s^–1, as the fitting was relatively insensitive to changes in these constants. […] The resulting best fit gave rate constants for ATP binding as 0.65 (±0.02) µM^−1s^−1, dissociation of ATP as 10.0 (±0.6) s^−1, cleavage as 7.1 (±0.1) s^−1. The fit gave a cleavage rate constant similar to the value of k cat from the steady-state analysis (Table 1a). The rate constant for ADP release may be only slightly larger than that of cleavage step.
Data were fitted to theoretical equations using the stopped-flow software or Grafit. Kinetic simulations were performed using Berkeley Madonna (Version 8.3, University of California at Berkeley) and using Global Kinetic Explorer (Kintek). […]

RecG = target: T2, RecG (Thermotoga maritima, UniProt Q9WY48); assay: Steady-state ATPase rate measurements with phosphate biosensor MDCC-PBP; assay type: biochemical; conditions: 10 µM ATP, varying inhibitor, 500 nM DNA junction (A40:B40), 20°C
T2 construct: made in house
T2 sequence (Q9WY48 1-780): T1 sequence (Q9WY48 1-780)
Excerpt: Steady-state measurements were made to gain an overall assessment of the reaction and the affinities of various nucleotides before investigating the individual steps in the ATPase cycle. A two-strand DNA junction, which contains two 20-bp regions of complementary and non-complementary sequences (A40:B40 Figure 1 and Table S1), was used in all these measurements. This forms a Y-shape structure and RecG translocates one single-stranded arm, but then remains bound to the end of the junction still hydrolyzing ATP [10].
All reactions with RecG and DNA were done at 20°C in a buffer containing 50 mM Tris⋅acetate (pH 8.0), 30 mM potassium acetate, 3 mM magnesium acetate and 1 mM DTT. ATPase measurements using MDCC-PBP were taken in the presence of a Pi mop, as described above. Steady-state ATPase measurements were taken in a solution (60 µl) at 20°C, containing 10 nM RecG, 500 nM DNA junction (A40∶B40, see Table S1) and 10 µM MDCC-PBP with varying nucleotide concentrations as substrate or inhibitor [23].

RecG⋅DNA(A40:B40) [2] = target: T1, RecG⋅DNA(A40:B40); assay: ADP dissociation kinetics by displacement with excess mantADP; assay type: binding
Protocol: as §1, with “10 µM RecG⋅DNA (A40∶B40) was pre-bound with 10 µM ADP before mixing with an excess of mantADP (20 µM): these concentrations are final in the mixing chamber.” left out, “Rate constants were independent of mantADP concentration in the range of 20–80 µM.” left out
A direct measurement of ADP dissociation kinetics was possible because of its relatively tight binding to RecG, which allowed quantitative formation of the ADP complex. […] The rate constant for dissociation was determined from a single exponential fit as 11.4 (±2) s^−1 (Figure 6C). This value fits well with the model whereby the dissociation rate constant is calculated as ≥12.5 s^−1.

Nc1ncnc2c1ncn2[C@@H]1O[C@H](COP(=O)(O)OP(=O)(O)O)[C@@H](O)[C@H]1O [ADP]
ADP binding rate constant in the model (RecG⋅DNA(A40:B40) [1]): 1.7 µM^−1s^–1
pKi (RecG): 5.14
ADP dissociation rate constant (RecG⋅DNA(A40:B40) [2]; 10 µM RecG⋅DNA pre-bound with 10 µM ADP, mixed with 20 µM mantADP): 11.4 (±2.2) s^−1
estimated ADP association rate constant (RecG⋅DNA(A40:B40) [2]; from dissociation rate constant and K i): 1.6e+06 M⁻¹ s⁻¹
